Reference: US8802597B2, “Herbicidal pyrimidines” (E I du Pont de Nemours and Company, priority 2003, dated 2014)

Experiments:
Assay in all cases: Test C pre/postemergence
Format in all cases: in vivo
[1] = test system: cocklebur (Xanthium strumarium); conditions: Preemergence
Procedure, shortened: (§1)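 Test compounds, formulated in a non-phytotoxic solvent mix with surfactant, were applied to freshly planted seeds and, at the same time, to emerged plants at 1- to 4-leaf stage (2 to 18 cm). After 12 to 14 days in the greenhouse, response was scored visually versus controls, 0 = no effect, 100 = complete control.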

[2] = test system: common (oilseed) sunflower (Helianthus annuus); conditions: Preemergence, scale 0 to 100, 0 no effect, 100 complete control
Procedure, shortened: as §1

[3] = test system: common ragweed (Ambrosia elatior); conditions: Preemergence, scale 0 to 100, 0 no effect, 100 complete control
Procedure, shortened: as §1

[4] = test system: crabgrass (Digitaria sanguinalis); conditions: Preemergence
Procedure, shortened: as §1

[5] = test system: eastern black nightshade (Solanum ptycanthum); conditions: Preemergence, scale 0 to 100, 0 no effect, 100 complete control
Procedure, shortened: as §1

[6] = test system: giant foxtail (Setaria faberii); conditions: Preemergence
Procedure, shortened: as §1

[7] = test system: kochia (Kochia scoparia); conditions: Preemergence; for Plant response rating, Kochia: scale 0 to 100, 0 no effect, 100 complete control
Procedure, shortened: as §1

[8] = test system: morningglory (Ipomoea coccinea); conditions: Preemergence
Procedure, shortened: as §1

[9] = test system: pigweed (Amaranthus retroflexus); conditions: Preemergence, scale 0 to 100, 0 no effect, 100 complete control
Procedure, shortened: as §1

[10] = test system: velvetleaf (Abutilon theophrasti); conditions: Preemergence, scale 0 to 100, 0 no effect, 100 complete control
Procedure, shortened: as §1

[11] = test system: woolly cupgrass (Eriochloa villosa); conditions: Preemergence
Procedure, shortened: as §1

[12] = test system: yellow nutsedge (Cyperus esculentus); conditions: Preemergence, scale 0 to 100, 0 no effect, 100 complete control
Procedure, shortened: as §1

[13] = 16 g ai/ha, scale 0 to 100, 0 no effect, 100 complete control
[14] = 31 g ai/ha, scale 0 to 100, 0 no effect, 100 complete control

For `Nc1nc(C2CC2)nc(C(=O)[O-])c1Cl.[Na+]` [Compound 77, 6-amino-5-chloro-2-cyclopropyl-4-pyrimidinecarboxylic acid monosodium salt], the “Plant response rating, Cocklebur” value [1, 13] was 55, the “Plant response rating, Cocklebur” value [1, 14] was 70 and the pest or weed control at 62 g/ha ([1]; Xanthium strumarium, pre-emergence, 62 g ai/ha, scale 0 to 100, 0 no effect, 100 complete control, read-out: Plant response rating, Cocklebur) was 80%. The pest or weed control at 125 g/ha ([1]; Xanthium strumarium, pre-emergence, 125 g ai/ha, scale 0 to 100, read-out: Plant response rating, Cocklebur) was 95%, the pest or weed control at 31 g/ha ([2]; Helianthus annuus, pre-emergence, 31 g ai/ha, read-out: Plant response rating, Sunflower) was 50% and the pest or weed control at 62 g/ha ([2]; Helianthus annuus, pre-emergence, 62 g ai/ha, read-out: Plant response rating, Sunflower) was 100%. For the same compound, the “Plant response rating, Sunflower” value ([2]; 16 g ai/ha) was 20, the pest or weed control at 31 g/ha ([3]; Ambrosia artemisiifolia, pre-emergence, 31 g ai/ha, read-out: Plant response rating, Ragweed) was 0% and the pest or weed control at 62 g/ha ([3]; Ambrosia artemisiifolia, pre-emergence, 62 g ai/ha, read-out: Plant response rating, Ragweed) was 50%. For the same compound, the “Plant response rating, Ragweed” value ([3]; 16 g ai/ha) was 0, the pest or weed control at 31 g/ha ([4]; Digitaria sanguinalis, pre-emergence, 31 g ai/ha, scale 0 to 100, 0 no effect, 100 complete control, read-out: Plant response rating, Crabgrass) was 0% and the pest or weed control at 62 g/ha ([4]; Digitaria sanguinalis, pre-emergence, 62 g ai/ha, scale 0 to 100, 0 no effect, 100 complete control, read-out: Plant response rating, Crabgrass) was 0%. The “Plant response rating, Crabgrass” value [4, 13] was 0, the “Plant response rating, Crabgrass” value ([4]; 125 g ai/ha, scale 0 to 100) was 0 and the “Plant response rating, Nightshade” value ([5]; 16 g ai/ha) was 0. The “Plant response rating, Nightshade” value ([5]; 31 g ai/ha) was 0, the “Plant response rating, Nightshade” value ([5]; 62 g ai/ha) was 0 and the “Plant response rating, Foxtail, Giant” value [6, 13] was 0. For the same compound, the pest or weed control at 31 g/ha ([6]; Setaria faberi, pre-emergence, 31 g ai/ha, scale 0 to 100, 0 no effect, 100 complete control, read-out: Plant response rating, Foxtail, Giant) was 0%, the pest or weed control at 62 g/ha ([6]; Setaria faberi, pre-emergence, 62 g ai/ha, scale 0 to 100, 0 no effect, 100 complete control, read-out: Plant response rating, Foxtail, Giant) was 0% and the pest or weed control at 125 g/ha ([6]; Setaria faberi, pre-emergence, 125 g ai/ha, scale 0 to 100, read-out: Plant response rating, Foxtail, Giant) was 0%. The pest or weed control at 125 g/ha ([7]; Bassia scoparia, pre-emergence, 125 g ai/ha, scale 0 to 100, read-out: Plant response rating, Kochia) was 80%, the “Plant response rating, Kochia” value ([7]; 16 g ai/ha) was 20 and the “Plant response rating, Kochia” value ([7]; 62 g ai/ha) was 50. The “Plant response rating, Morningglory” value [8, 13] was 5, the “Plant response rating, Morningglory” value [8, 14] was 50 and the “Plant response rating, Morningglory” value ([8]; 62 g ai/ha, scale 0 to 100, 0 no effect, 100 complete control) was 50. For the same compound, the “Plant response rating, Morningglory” value ([8]; 125 g ai/ha, scale 0 to 100) was 75, the pest or weed control at 31 g/ha ([9]; Amaranthus retroflexus, pre-emergence, 31 g ai/ha, read-out: Plant response rating, Pigweed) was 60% and the pest or weed control at 62 g/ha ([9]; Amaranthus retroflexus, pre-emergence, 62 g ai/ha, read-out: Plant response rating, Pigweed) was 65%. The “Plant response rating, Pigweed” value ([9]; 16 g ai/ha) was 60, the pest or weed control at 62 g/ha ([10]; Abutilon theophrasti, pre-emergence, 62 g ai/ha, read-out: Plant response rating, Velvetleaf) was 85% and the “Plant response rating, Velvetleaf” value ([10]; 16 g ai/ha) was 10. The “Plant response rating, Velvetleaf” value ([10]; 31 g ai/ha) was 30, the pest or weed control at 31 g/ha ([11]; Eriochloa villosa, pre-emergence, 31 g ai/ha, scale 0 to 100, 0 no effect, 100 complete control, read-out: Plant response rating, Cupgrass, Woolly) was 0% and the pest or weed control at 62 g/ha ([11]; Eriochloa villosa, pre-emergence, 62 g ai/ha, scale 0 to 100, 0 no effect, 100 complete control, read-out: Plant response rating, Cupgrass, Woolly) was 0%. The pest or weed control at 125 g/ha ([11]; Eriochloa villosa, pre-emergence, 125 g ai/ha, scale 0 to 100, read-out: Plant response rating, Cupgrass, Woolly) was 0%, the “Plant response rating, Cupgrass, Woolly” value [11, 13] was 0 and the pest or weed control at 31 g/ha ([12]; Cyperus, pre-emergence, 31 g ai/ha, read-out: Plant response rating, Nutsedge, Yellow) was 0%. For the same compound, the pest or weed control at 62 g/ha ([12]; Cyperus, pre-emergence, 62 g ai/ha, read-out: Plant response rating, Nutsedge, Yellow) was 0% and the “Plant response rating, Nutsedge, Yellow” value ([12]; 16 g ai/ha) was 0.
